According to the supplement of paper PMC10307832:

Tests used:
Assay in all cases: relative viability (nuclei count vs DMSO), 5 days (fraction); higher = more cells survive
A-427 = test system: A-427
In short: (§1)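 Relative viability equals treated-well nuclei counts divided by vehicle-well nuclei counts. Counts came from 4× images of lung cancer cell lines grown in 1536-well plates for 5 days after pin-tool dosing on the day after seeding. Dosing used one drug alone or a fixed anchor-drug dose plus five library-drug doses (not always all listed) in √10 steps, and values are medians of duplicate plates.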

CAL-12T = test system: CAL-12T
In short: as §1

LK-2 = test system: LK-2
In short: as §1

NCI-H1623 = test system: NCI-H1623
In short: as §1

NCI-H1648 = test system: NCI-H1648
In short: as §1

NCI-H1651 = test system: NCI-H1651
In short: as §1

NCI-H1755 = test system: NCI-H1755
In short: as §1

A549 = test system: A549
In short: as §1

Calu-6 = test system: Calu-6
In short: as §1

EBC-1 = test system: EBC-1
In short: as §1

IA-LM = test system: IA-LM
In short: as §1

NCI-H1299 = test system: NCI-H1299
In short: as §1

NCI-H1703 = test system: NCI-H1703
In short: as §1

SMILES: CCNC(=O)c1noc(-c2cc(C(C)C)c(O)cc2O)c1-c1ccc(CN2CCOCC2)cc1 [Luminespib] + COc1cccc2cc(-c3nc([C@H]4CC[C@H](C(=O)O)CC4)n4ncnc(N)c34)[nH]c12 [OSI-027] (partner 0.5 µM)
- relative viability (A-427; first compound 0.002 µM): 0.462
- relative viability (A-427; first compound 0.006325 µM): 0.396
- relative viability (A-427; first compound 0.02 µM): 0.366
- relative viability (A-427; first compound 0.06325 µM): 0.158
- relative viability (A-427; first compound 0.2 µM): 0.121
- relative viability (CAL-12T; first compound 0.002 µM): 0.799
- relative viability (CAL-12T; first compound 0.006325 µM): 0.63
- relative viability (CAL-12T; first compound 0.02 µM): 0.21
- relative viability (CAL-12T; first compound 0.06325 µM): 0.0898
- relative viability (CAL-12T; first compound 0.2 µM): 0.0995
- relative viability (LK-2; first compound 0.002 µM): 0.209
- relative viability (LK-2; first compound 0.006325 µM): 0.191
- relative viability (LK-2; first compound 0.02 µM): 0.149
- relative viability (LK-2; first compound 0.06325 µM): 0.12
- relative viability (LK-2; first compound 0.2 µM): 0.136
- relative viability (NCI-H1623; first compound 0.002 µM): 0.449
- relative viability (NCI-H1623; first compound 0.006325 µM): 0.439
- relative viability (NCI-H1623; first compound 0.02 µM): 0.415
- relative viability (NCI-H1623; first compound 0.06325 µM): 0.343
- relative viability (NCI-H1623; first compound 0.2 µM): 0.293
- relative viability (NCI-H1648; first compound 0.006325 µM): 0.283
- relative viability (NCI-H1648; first compound 0.02 µM): 0.289
- relative viability (NCI-H1648; first compound 0.06325 µM): 0.366
- relative viability (NCI-H1648; first compound 0.2 µM): 0.335
- relative viability (NCI-H1651; first compound 0.002 µM): 0.818
- relative viability (NCI-H1651; first compound 0.006325 µM): 0.622
- relative viability (NCI-H1651; first compound 0.02 µM): 0.42
- relative viability (NCI-H1651; first compound 0.06325 µM): 0.377
- relative viability (NCI-H1651; first compound 0.2 µM): 0.18
- relative viability (NCI-H1755; first compound 0.002 µM): 0.768
- relative viability (NCI-H1755; first compound 0.006325 µM): 0.707
- relative viability (NCI-H1755; first compound 0.02 µM): 0.626
- relative viability (NCI-H1755; first compound 0.06325 µM): 0.206
- relative viability (NCI-H1755; first compound 0.2 µM): 0.113

SMILES: Cc1cn(-c2cc(NC(=O)c3ccc(C)c(Nc4nccc(-c5cccnc5)n4)c3)cc(C(F)(F)F)c2)cn1 [Nilotinib] + COc1cccc2cc(-c3nc([C@H]4CC[C@H](C(=O)O)CC4)n4ncnc(N)c34)[nH]c12 [OSI-027] (partner 0.5 µM)
- relative viability (A-427; first compound 0.001 µM): 0.369
- relative viability (A-427; first compound 0.003162 µM): 0.456
- relative viability (A-427; first compound 0.01 µM): 0.44
- relative viability (A-427; first compound 0.03162 µM): 0.297
- relative viability (A-427; first compound 0.1 µM): 0.154
- relative viability (CAL-12T; first compound 0.001 µM): 0.612
- relative viability (CAL-12T; first compound 0.003162 µM): 0.413
- relative viability (CAL-12T; first compound 0.01 µM): 0.426
- relative viability (CAL-12T; first compound 0.03162 µM): 0.427
- relative viability (CAL-12T; first compound 0.1 µM): 0.527
- relative viability (LK-2; first compound 0.001 µM): 0.209
- relative viability (LK-2; first compound 0.003162 µM): 0.174
- relative viability (LK-2; first compound 0.01 µM): 0.184
- relative viability (LK-2; first compound 0.03162 µM): 0.178
- relative viability (LK-2; first compound 0.1 µM): 0.187
- relative viability (NCI-H1623; first compound 0.001 µM): 0.395
- relative viability (NCI-H1623; first compound 0.003162 µM): 0.422
- relative viability (NCI-H1623; first compound 0.01 µM): 0.444
- relative viability (NCI-H1623; first compound 0.03162 µM): 0.432
- relative viability (NCI-H1623; first compound 0.1 µM): 0.423
- relative viability (NCI-H1648; first compound 0.003162 µM): 0.257
- relative viability (NCI-H1648; first compound 0.01 µM): 0.257
- relative viability (NCI-H1648; first compound 0.03162 µM): 0.256
- relative viability (NCI-H1648; first compound 0.1 µM): 0.253
- relative viability (NCI-H1651; first compound 0.001 µM): 0.638
- relative viability (NCI-H1651; first compound 0.003162 µM): 0.727
- relative viability (NCI-H1651; first compound 0.01 µM): 0.842
- relative viability (NCI-H1651; first compound 0.03162 µM): 0.508
- relative viability (NCI-H1651; first compound 0.1 µM): 0.403
- relative viability (NCI-H1755; first compound 0.001 µM): 0.792
- relative viability (NCI-H1755; first compound 0.003162 µM): 0.617
- relative viability (NCI-H1755; first compound 0.01 µM): 0.74
- relative viability (NCI-H1755; first compound 0.03162 µM): 0.553
- relative viability (NCI-H1755; first compound 0.1 µM): 0.383

SMILES: Cc1cn(-c2cc(NC(=O)c3ccc(C)c(Nc4nccc(-c5cccnc5)n4)c3)cc(C(F)(F)F)c2)cn1 [Nilotinib] + COc1cc2c(Oc3ccc(NC(=O)C4(C(=O)Nc5ccc(F)cc5)CC4)cc3F)ccnc2cc1OCCCN1CCOCC1 [Foretinib] (partner 0.25 µM)
- relative viability (A-427; first compound 0.001 µM): 0.945
- relative viability (A-427; first compound 0.003162 µM): 1.09
- relative viability (A-427; first compound 0.01 µM): 1.03
- relative viability (A-427; first compound 0.03162 µM): 0.792
- relative viability (A-427; first compound 0.1 µM): 0.476
- relative viability (A549; first compound 0.001 µM): 1.03
- relative viability (A549; first compound 0.01 µM): 1.15
- relative viability (A549; first compound 0.1 µM): 0.95
- relative viability (CAL-12T; first compound 0.001 µM): 1.1
- relative viability (CAL-12T; first compound 0.003162 µM): 1.09
- relative viability (CAL-12T; first compound 0.01 µM): 1.17
- relative viability (CAL-12T; first compound 0.1 µM): 0.87
- relative viability (Calu-6; first compound 0.001 µM): 0.726
- relative viability (Calu-6; first compound 0.003162 µM): 0.897
- relative viability (Calu-6; first compound 0.01 µM): 0.934
- relative viability (Calu-6; first compound 0.03162 µM): 0.644
- relative viability (Calu-6; first compound 0.1 µM): 0.801
- relative viability (EBC-1; first compound 0.001 µM): 0.0869
- relative viability (EBC-1; first compound 0.003162 µM): 0.101
- relative viability (EBC-1; first compound 0.01 µM): 0.105
- relative viability (EBC-1; first compound 0.1 µM): 0.112
- relative viability (IA-LM; first compound 0.001 µM): 1.14
- relative viability (IA-LM; first compound 0.003162 µM): 1.23
- relative viability (IA-LM; first compound 0.01 µM): 1.33
- relative viability (IA-LM; first compound 0.1 µM): 1.17
- relative viability (LK-2; first compound 0.001 µM): 1.02
- relative viability (LK-2; first compound 0.003162 µM): 1.53
- relative viability (LK-2; first compound 0.01 µM): 1.1
- relative viability (LK-2; first compound 0.03162 µM): 0.905
- relative viability (LK-2; first compound 0.1 µM): 0.711
- relative viability (NCI-H1299; first compound 0.001 µM): 1.11
- relative viability (NCI-H1299; first compound 0.01 µM): 1.17
- relative viability (NCI-H1299; first compound 0.03162 µM): 1.19
- relative viability (NCI-H1299; first compound 0.1 µM): 1.07
- relative viability (NCI-H1623; first compound 0.001 µM): 0.789
- relative viability (NCI-H1623; first compound 0.003162 µM): 0.815
- relative viability (NCI-H1623; first compound 0.01 µM): 0.873
- relative viability (NCI-H1623; first compound 0.03162 µM): 0.667
- relative viability (NCI-H1623; first compound 0.1 µM): 0.791
- relative viability (NCI-H1651; first compound 0.001 µM): 0.82
- relative viability (NCI-H1651; first compound 0.003162 µM): 0.922
- relative viability (NCI-H1651; first compound 0.01 µM): 1.19
- relative viability (NCI-H1651; first compound 0.03162 µM): 0.761
- relative viability (NCI-H1651; first compound 0.1 µM): 0.79
- relative viability (NCI-H1703; first compound 0.001 µM): 0.337
- relative viability (NCI-H1703; first compound 0.1 µM): 0.409
- relative viability (NCI-H1755; first compound 0.001 µM): 0.892
- relative viability (NCI-H1755; first compound 0.003162 µM): 0.968
- relative viability (NCI-H1755; first compound 0.01 µM): 0.974
- relative viability (NCI-H1755; first compound 0.03162 µM): 0.983
- relative viability (NCI-H1755; first compound 0.1 µM): 0.843
